According to patent publication US4468387A, “Pesticidal N-sulfonyl N'-oxalate phosphorodiamido(di)thioates” (Rohm and Haas Company, priority 1982, dated 1984):

Columns and labels:
Format in all cases: in vivo
[1] = tested on: Two-spotted spider mite (Tetranychus urticae); assay: mite test, sprayed infested bean leaf discs (two-spotted spider mite); settings: 600 ppm; leaf disc spray; percent kill after 24 hours
Source text: (§1) A test solution containing 600 ppm of test compound can be made by dissolving the test compound in a solvent (acetone:methanol, 1:1), adding surfactant and then water to give an acetone:methanol:water system of 10:10:80. A 1:1 mixture of an alkylarylpolyetheralcohol (commercially available under the trademark Triton X-155) and a modified phthalic glycerol alkyl resin (commercially available under the trademark Triton B-1956) can be utilized at the equivalent of one ounce per 100 gallons of test solution and a surfactant.
For the mite test, infested bean (Phaseolus limeanus) leaf discs (1.25 inches in diameter) containing about 50 mites are placed in a Petri dish lid on a moistened piece of cotton. The leaves are then sprayed with the test solution using a rotating turntable. They are held for 24 hours and then the percent kill is determined.

[2] = tested on: Southern armyworm (Spodoptera eridania); assay: armyworm test, sprayed detached bean leaves, third instar southern armyworm larvae; settings: 600 ppm, leaf spray, percent kill after 48 hours
Source text: as §1
For the armyworm test, detached bean leaves on pieces of moistened filter paper are sprayed as above for the mite test in similar dishes and allowed to dry. The dishes are infested with 10 third instar southern armyworm larvae. The dishes are covered. After holding for 48 hours, the percent kill is obtained.

[3] = tested on: Southern root-knot nematode (Meloidogyne incognita); assay: nematode test, inoculated soil, cucumber root knots; settings: about 30 ppm by volume in soil; knots on cucumber roots after about 23 days
Source text: as §1
For the nematode test, soil is homogeneously inoculated with a macerated blend of tomato roots heavily knotted with the root knot nematode. Ten milliliters of the test solution are added to 200 milliliters of the inoculated soil in a 16 oz. jar to give a concentration by volume of about 30 ppm. The jar is then shaken to insure thorough mixing, immediately uncapped, and allowed to air for 24 hours. The soil is then placed into a 3 inch plastic pot after which time 3 cucumber (Cucumis sativus) seeds are planted. About 23 days thereafter, the cucumber plants are removed from the soil and the root system examined for the presence of knots. A total of 15 knots or less is considered as a measure of control.

## CCC(C)SP(=O)(N(C)C(=O)C(=O)Oc1ccccc1)N(C)S(C)(=O)=O (stereo not drawn) [Example 6, N-Methanesulfonyl N,N'-dimethyl S-(1-methylpropyl) N'-phenoxycarbonylcarbonyl phosphorodiamidothioate]
[1]
  Insecticidal Screening Results, % Control, Two-Spotted Mite: 100%
[2]
  Insecticidal Screening Results, % Control, Southern Armyworm: 100%
[3]
  Nema (control of root-knot nematode): + (A total of 15 knots or less is considered as a measure of control)

## CCC(C)SP(=O)(N(C)C(=O)C(=O)OC(C)C)N(C)S(C)(=O)=O (stereo not drawn) [Example 1, N-Methanesulfonyl N,N'-dimethyl N'-[(1-methylethoxycarbonyl)carbonyl] S-(1-methylpropyl) phosphorodiamidothioate]
[1]
  Insecticidal Screening Results, % Control, Two-Spotted Mite: 100%
[2]
  Insecticidal Screening Results, % Control, Southern Armyworm: 100%
[3]
  Nema (control of root-knot nematode): + (A total of 15 knots or less is considered as a measure of control)

## CCC(C)SP(=O)(N(C)C(=O)C(=O)OC)N(C)S(C)(=O)=O (stereo not drawn) [Example 2, N-Methanesulfonyl N'-[(methoxycarbonyl)carbonyl] N,N'-dimethyl S-(1-methylpropyl) phosphorodiamidothioate]
[1]
  Insecticidal Screening Results, % Control, Two-Spotted Mite: 100%
[2]
  Insecticidal Screening Results, % Control, Southern Armyworm: 100%
[3]
  Nema (control of root-knot nematode): + (A total of 15 knots or less is considered as a measure of control)

## CCC(C)SP(=O)(N(C)C(=O)C(=O)OC1CCCCC1)N(C)S(C)(=O)=O (stereo not drawn) [Example 4, N'-Cyclohexyloxycarbonylcarbonyl N-methanesulfonyl N,N'-dimethyl S-(1-methylpropyl) phosphorodiamidothioate]
[1]
  Insecticidal Screening Results, % Control, Two-Spotted Mite: 100%
[2]
  Insecticidal Screening Results, % Control, Southern Armyworm: 30%
[3]
  Nema (control of root-knot nematode): + (A total of 15 knots or less is considered as a measure of control)

## CCC(C)SP(=O)(N(C)C(=O)C(=O)Oc1ccc(SC)cc1)N(C)S(C)(=O)=O (stereo not drawn) [Example 8, N-Methanesulfonyl N,N'-dimethyl S-(1-methylpropyl N'-(4-methylthiophenoxy)carbonylcarbonyl phosphorodiamidothioate]
[1]
  Insecticidal Screening Results, % Control, Two-Spotted Mite: 100%
[2]
  Insecticidal Screening Results, % Control, Southern Armyworm: 100%
[3]
  Nema (control of root-knot nematode): + (A total of 15 knots or less is considered as a measure of control)

## CCSCCOC(=O)C(=O)N(C)P(=O)(SC(C)CC)N(C)S(C)(=O)=O (stereo not drawn) [Example 11, N'-(2-Ethylthioethoxy)carbonylcarbonyl N-methanesulfonyl N,N'-dimethyl S-(1-methylpropyl) phosphorodiamidothioate]
[1]
  Insecticidal Screening Results, % Control, Two-Spotted Mite: 100%
[2]
  Insecticidal Screening Results, % Control, Southern Armyworm: 100%
[3]
  Nema (control of root-knot nematode): + (A total of 15 knots or less is considered as a measure of control)

## CCC(C)SP(=O)(N(C)C(=O)C(=O)OCCCl)N(C)S(C)(=O)=O (stereo not drawn) [Example 10, N'-(2-Chloroethoxy)carbonylcarbonyl N-methanesulfonyl N,N'-dimethyl S-(1-methylpropyl) phosphorodiamidothioate]
[1]
  Insecticidal Screening Results, % Control, Two-Spotted Mite: 100%
[2]
  Insecticidal Screening Results, % Control, Southern Armyworm: 100%
[3]
  Nema (control of root-knot nematode): + (A total of 15 knots or less is considered as a measure of control)

## CCC(C)SP(=O)(N(C)C(=O)C(=O)SC1CCCCC1)N(C)S(C)(=O)=O (stereo not drawn) [Example 12, N'-(Cyclohexylthio)carbonylcarbonyl N-methansulfonyl N,N'-dimethyl S-(1-methylpropyl) phosphorodiamidothioate]
[1]
  Insecticidal Screening Results, % Control, Two-Spotted Mite: 100%
[2]
  Insecticidal Screening Results, % Control, Southern Armyworm: 100%
[3]
  Nema (control of root-knot nematode): + (A total of 15 knots or less is considered as a measure of control)

## CCC(C)SP(=O)(N(C)C(=O)C(=O)OCCOC)N(C)S(C)(=O)=O (stereo not drawn) [Example 13, N-Methanesulfonyl N'-(2-methoxyethoxy)carbonylcarbonyl N,N'-dimethyl S-(1-methylpropyl) phosphorodiamidothioate]
[1]
  Insecticidal Screening Results, % Control, Two-Spotted Mite: 100%
[2]
  Insecticidal Screening Results, % Control, Southern Armyworm: 100%
[3]
  Nema (control of root-knot nematode): + (A total of 15 knots or less is considered as a measure of control)

## CCCSC(=O)C(=O)N(C)P(=O)(SC(C)CC)N(C)S(C)(=O)=O (stereo not drawn) [Example 7, N-Methanesulfonyl N,N'-dimethyl S-(1-methylpropyl) N'-(propylthio)carbonylcarbonyl phosphorodiamidothioate]
[1]
  Insecticidal Screening Results, % Control, Two-Spotted Mite: 100%
[2]
  Insecticidal Screening Results, % Control, Southern Armyworm: 100%
[3]
  Nema (control of root-knot nematode): + (A total of 15 knots or less is considered as a measure of control)

## CCC(C)OC(=O)C(=O)N(C)P(=O)(SC(C)CC)N(C)S(C)(=O)=O (stereo not drawn) [Example 9, N-Methanesulfonyl N,N'-dimethyl S-(1-methylpropyl) N'-(1-methylpropyloxy)carbonylcarbonyl phosphorodiamidothioate]
[1]
  Insecticidal Screening Results, % Control, Two-Spotted Mite: 100%
[2]
  Insecticidal Screening Results, % Control, Southern Armyworm: 100%
[3]
  Nema (control of root-knot nematode): + (A total of 15 knots or less is considered as a measure of control)

## CCC(C)SP(=O)(N(C)C(=O)C(=O)OCc1ccccc1)N(C)S(C)(=O)=O (stereo not drawn) [Example 14, N'-Benzyloxycarbonylcarbonyl N-methanesulfonyl N,N'-dimethyl S-(1-methylpropyl) phosphorodiamidothioate]
[1]
  Insecticidal Screening Results, % Control, Two-Spotted Mite: 100%
[2]
  Insecticidal Screening Results, % Control, Southern Armyworm: 100%
[3]
  Nema (control of root-knot nematode): + (A total of 15 knots or less is considered as a measure of control)

## CCC(C)SP(=O)(N(C)C(=O)C(=O)OC(C)(C)C)N(C)S(C)(=O)=O (stereo not drawn) [Example 3, N-Methanesulfonyl N,N'-dimethyl N'-[(1,1-dimethylethoxy)carbonylcarbonyl] S-(1-methylpropyl) phosphorodiamidothioate]
[1]
  Insecticidal Screening Results, % Control, Two-Spotted Mite: 100%
[2]
  Insecticidal Screening Results, % Control, Southern Armyworm: 100%
[3]
  Nema (control of root-knot nematode): + (A total of 15 knots or less is considered as a measure of control)
